Assay: Pharmacokinetics (plasma and urine) of ascending multiple oral doses in healthy volunteers
Type: in vivo, human
Design: Cmax: unit: ng/mL
Details: for AUC(0-∞) / Cmax / Ctrough / RA (ratio of accumulation) / t1/2 / Tmax: Day 14 (N = 8); for AUC(0-∞) / Cmax / Ctrough / RA (ratio of accumulation) / t1/2 / AUC(0-τ): geometric mean; for Tmax: median; for AUC(0-τ): Day 14, τ = 24 hours (N = 8)
Source text: Subjects: Forty healthy male and female subjects between the ages of 20 and 50 were enrolled in the study. All subjects were in good health as determined by a medical history, physical examination, 12-lead ECG, serum biochemistry, hematology, urinalysis and virology. Subjects were not permitted to take any prescribed medication within 30 days or non-prescribed medication within 7 days of the first dose administration.
Study Design: This study was a randomized, double-blind, placebo-controlled, ascending-dose trial to evaluate the safety, tolerability and pharmacokinetics (PK) of multiple oral doses of Compound I. Subjects were enrolled into 1 of the 4 cohorts, 10 subjects per cohort (active:placebo=8:2). Subjects received a multiple oral dose of 25, 50, 100, or 200 mg unformulated Compound I in a capsule, or matching placebo, once daily (QD) for 14 days.
Assessments: Safety and tolerability were assessed by adverse event (AE) monitoring, clinical laboratory testing, vital sign measurement, 12-lead ECG measurement, concomitant medication assessment, and physical examination. Blood and urine samples were collected to assess the PK profile of Compound I and the S-cis isomer of Compound I. Blood samples (˜5 mL) for plasma PK analysis were collected in K2-EDTA vacutainer tubes to yield approximately 2 mL of plasma at each of the following time points: (i) Day 1: before dosing, and 0.25, 0.5, 1, 1.5, 2, 2.5, 3, 4, 6, 8, 10, 12, 16, and 24 hours after dosing; (ii) Day 3 to Day 9: before dosing; (iii) Day 10: before dosing, and 0.25, 0.5, 1, 1.5, 2, 2.5, 3, 4, 6, 8, 10, 12, and 16 hours after dosing; (iv) Day 11 to Day 13: before dosing; (v) Day 14: before dosing, and 0.25, 0.5, 1, 1.5, 2, 2.5, 3, 4, 6, 8, 10, 12, 16, 24, 48, 72, 96, 120, 144, and 168 hours after dosing. Urine samples for the PK analysis were collected as a single block at: (i) Day 1: before dosing (spot collection), 0 to 8, 8 to 16, and 16 to 24 hours after dosing; and (ii) Day 14: 0 to 8, 8 to 16, and 16 to 24 hours after dosing. Both plasma and urine concentrations of Compound I and its S-cis isomer were measured using validated liquid chromatography-tandem mass spectrometry (LC/MS/MS).
Data Analysis: Safety data were summarized using descriptive statistics by treatment. PK parameters for Compound I and its S-cis isomer were calculated using non-compartmental analysis using WinNonlin (Version 5.0.1 or greater; Pharsight Corporation, Mountain View, Calif.). Dose proportionality and dose independence were evaluated by visual inspection. Intra-subject variability was assessed using an ANOVA model using data from Days 10 and 14.

[1] = S-cis isomer in plasma after Compound I 25 mg QD
[2] = S-cis isomer in plasma after Compound I 50 mg QD
[3] = S-cis isomer in plasma after Compound I 100 mg QD
[4] = S-cis isomer in plasma after Compound I 200 mg QD

With `OC1CCC(Nc2ncc3nc(Nc4c(F)cc(F)cc4F)n(C4CCOC4)c3n2)CC1` (stereo not drawn) [S-cis isomer of Compound I] the “AUC(0-∞)” value [1] was 180.14 ng·h/mL, the Cmax [1] was 5.43 ng/mL and the Ctrough [1] was 2.33 ng/mL. The “RA (ratio of accumulation)” value [1] was 2.02, the t1/2 [1] was 28.82 h and the Tmax [1] was 2.5 h. The “AUC(0-τ)” value [1] was 78.40 ng·h/mL, the “AUC(0-∞)” value [2] was 365.88 ng·h/mL and the Cmax [2] was 11.61 ng/mL. The Ctrough [2] was 4.93 ng/mL, the “RA (ratio of accumulation)” value [2] was 2.28 and the t1/2 [2] was 25.39 h. The Tmax [2] was 3.0 h, the “AUC(0-τ)” value [2] was 177.01 ng·h/mL and the “AUC(0-∞)” value [3] was 541.06 ng·h/mL. The Cmax [3] was 14.87 ng/mL, the Ctrough [3] was 7.14 ng/mL and the “RA (ratio of accumulation)” value [3] was 1.88. For the same compound, the t1/2 [3] was 28.17 h, the Tmax [3] was 2.5 h and the “AUC(0-τ)” value [3] was 237.26 ng·h/mL. The “AUC(0-∞)” value [4] was 804.07 ng·h/mL, the Cmax [4] was 27.69 ng/mL and the Ctrough [4] was 10.90 ng/mL. The “RA (ratio of accumulation)” value [4] was 1.50, the t1/2 [4] was 23.93 h and the Tmax [4] was 2.5 h. The “AUC(0-τ)” value [4] was 404.33 ng·h/mL and the “systemic exposure relative to that of Compound I” value (after Compound I QD dosing) was “about 2%”.

Reference: patent publication US8603527B2, “Pharmaceutical formulations of a substituted diaminopurine” (Signal Pharmaceuticals, LLC, priority 2010, dated 2013)
